We go through five compounds from ChEMBL document CHEMBL5465560, “Selectivity Literature for EUbOPEN Chemogenomic Library” (2024).

Structures are written as SMILES.

In assay [1] the target is Tyrosine-protein kinase ABL1 (Homo sapiens, UniProt P00519). Kind of assay: Selectivity interaction (KinomeScan (DiscoverX)) EUB0000655a ABL1. Conditions: at 10 µM.
The target of assay [2] is T1, Aurora kinase A (Homo sapiens) (UniProt O14965).
T1 sequence (whole entry): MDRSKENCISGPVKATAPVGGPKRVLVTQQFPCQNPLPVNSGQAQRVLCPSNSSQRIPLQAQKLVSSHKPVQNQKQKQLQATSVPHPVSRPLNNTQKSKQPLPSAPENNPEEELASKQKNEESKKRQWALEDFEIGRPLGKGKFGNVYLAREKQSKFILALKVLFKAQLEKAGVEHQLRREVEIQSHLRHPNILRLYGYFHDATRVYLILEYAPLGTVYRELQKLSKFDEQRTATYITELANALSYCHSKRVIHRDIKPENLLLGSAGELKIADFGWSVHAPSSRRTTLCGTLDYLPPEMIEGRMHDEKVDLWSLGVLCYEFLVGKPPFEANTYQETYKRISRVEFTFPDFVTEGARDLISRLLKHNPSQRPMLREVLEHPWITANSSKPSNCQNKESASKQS
Kind of assay: Selectivity interaction (Kinase panel (Carna Biosciences)) EUB0001542aTs STK6. To be noted: at 1 µM.

Assay [3] concerns the target T2, Serine/threonine-protein kinase D2 (Homo sapiens) (UniProt Q9BZL6).
T2 sequence (whole entry): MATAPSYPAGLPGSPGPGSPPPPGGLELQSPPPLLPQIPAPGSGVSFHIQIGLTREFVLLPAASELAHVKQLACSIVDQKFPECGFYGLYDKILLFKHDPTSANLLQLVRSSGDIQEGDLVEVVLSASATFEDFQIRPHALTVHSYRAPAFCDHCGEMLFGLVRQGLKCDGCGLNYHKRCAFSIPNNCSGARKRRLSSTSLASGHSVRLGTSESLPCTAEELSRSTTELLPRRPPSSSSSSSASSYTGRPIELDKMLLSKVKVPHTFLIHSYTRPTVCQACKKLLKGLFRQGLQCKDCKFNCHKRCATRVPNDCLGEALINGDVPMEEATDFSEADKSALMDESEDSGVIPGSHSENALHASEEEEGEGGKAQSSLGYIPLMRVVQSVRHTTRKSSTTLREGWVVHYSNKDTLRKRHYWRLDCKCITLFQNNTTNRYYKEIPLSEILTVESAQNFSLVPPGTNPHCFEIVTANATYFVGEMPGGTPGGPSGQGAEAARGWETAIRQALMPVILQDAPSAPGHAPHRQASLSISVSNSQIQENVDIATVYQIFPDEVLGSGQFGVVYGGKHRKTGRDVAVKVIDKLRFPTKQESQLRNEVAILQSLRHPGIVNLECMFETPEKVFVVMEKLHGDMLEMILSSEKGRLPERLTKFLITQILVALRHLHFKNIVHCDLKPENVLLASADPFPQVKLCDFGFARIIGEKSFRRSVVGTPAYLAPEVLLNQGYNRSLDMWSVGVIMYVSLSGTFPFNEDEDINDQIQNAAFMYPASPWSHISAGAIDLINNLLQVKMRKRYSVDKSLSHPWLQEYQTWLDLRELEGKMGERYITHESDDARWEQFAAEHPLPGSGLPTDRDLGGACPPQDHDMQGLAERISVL
Kind of assay: Selectivity interaction (SelectScreen profiling (Invitrogen)) EUB0000607a PRKD2. Conditions: at 2 µM.

Assay [4] concerns the target T3, Serine/threonine-protein kinase RIO3 (Homo sapiens) (UniProt O14730).
T3 sequence (whole entry): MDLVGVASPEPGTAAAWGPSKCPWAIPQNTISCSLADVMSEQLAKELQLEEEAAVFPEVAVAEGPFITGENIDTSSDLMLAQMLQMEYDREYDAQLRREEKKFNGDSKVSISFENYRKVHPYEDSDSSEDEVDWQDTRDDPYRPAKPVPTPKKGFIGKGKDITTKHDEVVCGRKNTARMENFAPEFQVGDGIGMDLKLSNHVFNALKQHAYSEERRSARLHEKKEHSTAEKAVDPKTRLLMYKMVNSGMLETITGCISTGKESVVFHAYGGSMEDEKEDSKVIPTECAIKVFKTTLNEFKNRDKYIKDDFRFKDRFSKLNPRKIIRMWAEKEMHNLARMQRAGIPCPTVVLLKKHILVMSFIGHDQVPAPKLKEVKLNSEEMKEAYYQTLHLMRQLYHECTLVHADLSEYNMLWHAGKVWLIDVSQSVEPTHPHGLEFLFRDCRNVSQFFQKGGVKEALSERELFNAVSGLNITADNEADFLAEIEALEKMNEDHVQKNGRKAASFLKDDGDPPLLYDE
Kind of assay: Selectivity interaction (KinomeScan (DiscoverX)) EUB0000607a RIOK3. Conditions: at 10 µM.

Assay [5] deals with Serine/threonine-protein kinase SMG1 (Homo sapiens) (UniProt Q96Q15). Nature of the assay: Selectivity interaction (ActivX KiNativ screen (kinase selectivity in THP-1 cell lysates)) EUB0000639a SMG1. Conditions: lysate, at 1 µM. It counts as subcellular.
The target in assay [6] is T4, Serine/threonine-protein kinase Nek9 (Homo sapiens) (UniProt Q8TD19).
T4 sequence (whole entry): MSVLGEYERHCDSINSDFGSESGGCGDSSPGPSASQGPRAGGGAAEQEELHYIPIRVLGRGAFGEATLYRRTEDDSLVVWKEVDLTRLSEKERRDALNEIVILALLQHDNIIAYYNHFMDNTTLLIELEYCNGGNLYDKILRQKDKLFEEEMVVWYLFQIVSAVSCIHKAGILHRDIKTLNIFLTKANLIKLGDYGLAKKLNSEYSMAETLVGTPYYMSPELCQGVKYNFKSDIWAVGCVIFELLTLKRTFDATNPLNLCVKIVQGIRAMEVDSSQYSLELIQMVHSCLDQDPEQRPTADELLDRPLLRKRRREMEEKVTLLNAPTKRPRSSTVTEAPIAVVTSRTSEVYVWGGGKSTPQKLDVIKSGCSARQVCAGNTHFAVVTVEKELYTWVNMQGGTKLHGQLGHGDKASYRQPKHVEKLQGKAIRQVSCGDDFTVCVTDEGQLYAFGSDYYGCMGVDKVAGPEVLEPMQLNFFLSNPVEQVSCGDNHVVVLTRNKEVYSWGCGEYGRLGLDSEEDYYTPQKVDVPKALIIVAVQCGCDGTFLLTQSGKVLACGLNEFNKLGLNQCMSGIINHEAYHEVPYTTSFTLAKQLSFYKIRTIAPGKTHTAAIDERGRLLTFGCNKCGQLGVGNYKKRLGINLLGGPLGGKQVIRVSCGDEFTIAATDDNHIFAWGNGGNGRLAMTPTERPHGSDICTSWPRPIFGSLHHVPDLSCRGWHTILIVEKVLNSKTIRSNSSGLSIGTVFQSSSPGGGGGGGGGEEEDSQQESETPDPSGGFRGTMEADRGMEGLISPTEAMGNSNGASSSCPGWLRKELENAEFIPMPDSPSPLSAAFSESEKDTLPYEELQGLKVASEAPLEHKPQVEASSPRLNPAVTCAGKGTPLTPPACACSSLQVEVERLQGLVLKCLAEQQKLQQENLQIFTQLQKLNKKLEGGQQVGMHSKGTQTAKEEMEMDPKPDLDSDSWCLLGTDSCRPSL
Nature of the assay: Selectivity interaction (KinomeScan (DiscoverX)) EUB0000595a NEK9. Conditions: at 10 µM.

Chain of Tyrosine-protein kinase ABL1 (P00519 whole entry): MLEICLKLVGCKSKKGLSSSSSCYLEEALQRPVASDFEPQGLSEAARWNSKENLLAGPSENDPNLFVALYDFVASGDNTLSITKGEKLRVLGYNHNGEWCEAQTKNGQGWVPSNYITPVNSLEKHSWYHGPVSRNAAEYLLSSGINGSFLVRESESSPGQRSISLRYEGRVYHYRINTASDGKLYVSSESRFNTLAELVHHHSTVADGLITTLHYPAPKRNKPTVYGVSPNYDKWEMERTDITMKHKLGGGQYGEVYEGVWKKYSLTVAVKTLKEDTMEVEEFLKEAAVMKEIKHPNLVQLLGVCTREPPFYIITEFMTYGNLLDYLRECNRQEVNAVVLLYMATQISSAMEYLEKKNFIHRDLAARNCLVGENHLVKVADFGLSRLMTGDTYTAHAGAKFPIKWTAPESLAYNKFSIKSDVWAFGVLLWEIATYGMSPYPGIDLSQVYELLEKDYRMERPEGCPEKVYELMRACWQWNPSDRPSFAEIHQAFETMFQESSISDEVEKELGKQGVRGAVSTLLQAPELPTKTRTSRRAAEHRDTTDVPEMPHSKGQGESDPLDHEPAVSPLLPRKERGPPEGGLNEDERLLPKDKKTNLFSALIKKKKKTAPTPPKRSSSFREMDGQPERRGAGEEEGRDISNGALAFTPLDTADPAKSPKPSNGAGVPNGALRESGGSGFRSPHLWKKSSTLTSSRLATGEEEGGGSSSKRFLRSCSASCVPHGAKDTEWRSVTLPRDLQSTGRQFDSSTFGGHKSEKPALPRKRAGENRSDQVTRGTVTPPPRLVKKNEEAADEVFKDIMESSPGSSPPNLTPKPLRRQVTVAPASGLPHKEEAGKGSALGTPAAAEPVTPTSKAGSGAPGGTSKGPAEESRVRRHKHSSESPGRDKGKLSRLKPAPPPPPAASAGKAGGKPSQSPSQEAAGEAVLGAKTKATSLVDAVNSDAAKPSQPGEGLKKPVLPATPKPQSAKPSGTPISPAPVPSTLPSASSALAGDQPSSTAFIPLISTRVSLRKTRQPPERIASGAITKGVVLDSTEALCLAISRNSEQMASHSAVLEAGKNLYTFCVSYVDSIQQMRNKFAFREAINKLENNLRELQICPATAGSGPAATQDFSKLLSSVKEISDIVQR
Chain of Serine/threonine-protein kinase SMG1 (Homo sapiens) (Q96Q15 whole entry): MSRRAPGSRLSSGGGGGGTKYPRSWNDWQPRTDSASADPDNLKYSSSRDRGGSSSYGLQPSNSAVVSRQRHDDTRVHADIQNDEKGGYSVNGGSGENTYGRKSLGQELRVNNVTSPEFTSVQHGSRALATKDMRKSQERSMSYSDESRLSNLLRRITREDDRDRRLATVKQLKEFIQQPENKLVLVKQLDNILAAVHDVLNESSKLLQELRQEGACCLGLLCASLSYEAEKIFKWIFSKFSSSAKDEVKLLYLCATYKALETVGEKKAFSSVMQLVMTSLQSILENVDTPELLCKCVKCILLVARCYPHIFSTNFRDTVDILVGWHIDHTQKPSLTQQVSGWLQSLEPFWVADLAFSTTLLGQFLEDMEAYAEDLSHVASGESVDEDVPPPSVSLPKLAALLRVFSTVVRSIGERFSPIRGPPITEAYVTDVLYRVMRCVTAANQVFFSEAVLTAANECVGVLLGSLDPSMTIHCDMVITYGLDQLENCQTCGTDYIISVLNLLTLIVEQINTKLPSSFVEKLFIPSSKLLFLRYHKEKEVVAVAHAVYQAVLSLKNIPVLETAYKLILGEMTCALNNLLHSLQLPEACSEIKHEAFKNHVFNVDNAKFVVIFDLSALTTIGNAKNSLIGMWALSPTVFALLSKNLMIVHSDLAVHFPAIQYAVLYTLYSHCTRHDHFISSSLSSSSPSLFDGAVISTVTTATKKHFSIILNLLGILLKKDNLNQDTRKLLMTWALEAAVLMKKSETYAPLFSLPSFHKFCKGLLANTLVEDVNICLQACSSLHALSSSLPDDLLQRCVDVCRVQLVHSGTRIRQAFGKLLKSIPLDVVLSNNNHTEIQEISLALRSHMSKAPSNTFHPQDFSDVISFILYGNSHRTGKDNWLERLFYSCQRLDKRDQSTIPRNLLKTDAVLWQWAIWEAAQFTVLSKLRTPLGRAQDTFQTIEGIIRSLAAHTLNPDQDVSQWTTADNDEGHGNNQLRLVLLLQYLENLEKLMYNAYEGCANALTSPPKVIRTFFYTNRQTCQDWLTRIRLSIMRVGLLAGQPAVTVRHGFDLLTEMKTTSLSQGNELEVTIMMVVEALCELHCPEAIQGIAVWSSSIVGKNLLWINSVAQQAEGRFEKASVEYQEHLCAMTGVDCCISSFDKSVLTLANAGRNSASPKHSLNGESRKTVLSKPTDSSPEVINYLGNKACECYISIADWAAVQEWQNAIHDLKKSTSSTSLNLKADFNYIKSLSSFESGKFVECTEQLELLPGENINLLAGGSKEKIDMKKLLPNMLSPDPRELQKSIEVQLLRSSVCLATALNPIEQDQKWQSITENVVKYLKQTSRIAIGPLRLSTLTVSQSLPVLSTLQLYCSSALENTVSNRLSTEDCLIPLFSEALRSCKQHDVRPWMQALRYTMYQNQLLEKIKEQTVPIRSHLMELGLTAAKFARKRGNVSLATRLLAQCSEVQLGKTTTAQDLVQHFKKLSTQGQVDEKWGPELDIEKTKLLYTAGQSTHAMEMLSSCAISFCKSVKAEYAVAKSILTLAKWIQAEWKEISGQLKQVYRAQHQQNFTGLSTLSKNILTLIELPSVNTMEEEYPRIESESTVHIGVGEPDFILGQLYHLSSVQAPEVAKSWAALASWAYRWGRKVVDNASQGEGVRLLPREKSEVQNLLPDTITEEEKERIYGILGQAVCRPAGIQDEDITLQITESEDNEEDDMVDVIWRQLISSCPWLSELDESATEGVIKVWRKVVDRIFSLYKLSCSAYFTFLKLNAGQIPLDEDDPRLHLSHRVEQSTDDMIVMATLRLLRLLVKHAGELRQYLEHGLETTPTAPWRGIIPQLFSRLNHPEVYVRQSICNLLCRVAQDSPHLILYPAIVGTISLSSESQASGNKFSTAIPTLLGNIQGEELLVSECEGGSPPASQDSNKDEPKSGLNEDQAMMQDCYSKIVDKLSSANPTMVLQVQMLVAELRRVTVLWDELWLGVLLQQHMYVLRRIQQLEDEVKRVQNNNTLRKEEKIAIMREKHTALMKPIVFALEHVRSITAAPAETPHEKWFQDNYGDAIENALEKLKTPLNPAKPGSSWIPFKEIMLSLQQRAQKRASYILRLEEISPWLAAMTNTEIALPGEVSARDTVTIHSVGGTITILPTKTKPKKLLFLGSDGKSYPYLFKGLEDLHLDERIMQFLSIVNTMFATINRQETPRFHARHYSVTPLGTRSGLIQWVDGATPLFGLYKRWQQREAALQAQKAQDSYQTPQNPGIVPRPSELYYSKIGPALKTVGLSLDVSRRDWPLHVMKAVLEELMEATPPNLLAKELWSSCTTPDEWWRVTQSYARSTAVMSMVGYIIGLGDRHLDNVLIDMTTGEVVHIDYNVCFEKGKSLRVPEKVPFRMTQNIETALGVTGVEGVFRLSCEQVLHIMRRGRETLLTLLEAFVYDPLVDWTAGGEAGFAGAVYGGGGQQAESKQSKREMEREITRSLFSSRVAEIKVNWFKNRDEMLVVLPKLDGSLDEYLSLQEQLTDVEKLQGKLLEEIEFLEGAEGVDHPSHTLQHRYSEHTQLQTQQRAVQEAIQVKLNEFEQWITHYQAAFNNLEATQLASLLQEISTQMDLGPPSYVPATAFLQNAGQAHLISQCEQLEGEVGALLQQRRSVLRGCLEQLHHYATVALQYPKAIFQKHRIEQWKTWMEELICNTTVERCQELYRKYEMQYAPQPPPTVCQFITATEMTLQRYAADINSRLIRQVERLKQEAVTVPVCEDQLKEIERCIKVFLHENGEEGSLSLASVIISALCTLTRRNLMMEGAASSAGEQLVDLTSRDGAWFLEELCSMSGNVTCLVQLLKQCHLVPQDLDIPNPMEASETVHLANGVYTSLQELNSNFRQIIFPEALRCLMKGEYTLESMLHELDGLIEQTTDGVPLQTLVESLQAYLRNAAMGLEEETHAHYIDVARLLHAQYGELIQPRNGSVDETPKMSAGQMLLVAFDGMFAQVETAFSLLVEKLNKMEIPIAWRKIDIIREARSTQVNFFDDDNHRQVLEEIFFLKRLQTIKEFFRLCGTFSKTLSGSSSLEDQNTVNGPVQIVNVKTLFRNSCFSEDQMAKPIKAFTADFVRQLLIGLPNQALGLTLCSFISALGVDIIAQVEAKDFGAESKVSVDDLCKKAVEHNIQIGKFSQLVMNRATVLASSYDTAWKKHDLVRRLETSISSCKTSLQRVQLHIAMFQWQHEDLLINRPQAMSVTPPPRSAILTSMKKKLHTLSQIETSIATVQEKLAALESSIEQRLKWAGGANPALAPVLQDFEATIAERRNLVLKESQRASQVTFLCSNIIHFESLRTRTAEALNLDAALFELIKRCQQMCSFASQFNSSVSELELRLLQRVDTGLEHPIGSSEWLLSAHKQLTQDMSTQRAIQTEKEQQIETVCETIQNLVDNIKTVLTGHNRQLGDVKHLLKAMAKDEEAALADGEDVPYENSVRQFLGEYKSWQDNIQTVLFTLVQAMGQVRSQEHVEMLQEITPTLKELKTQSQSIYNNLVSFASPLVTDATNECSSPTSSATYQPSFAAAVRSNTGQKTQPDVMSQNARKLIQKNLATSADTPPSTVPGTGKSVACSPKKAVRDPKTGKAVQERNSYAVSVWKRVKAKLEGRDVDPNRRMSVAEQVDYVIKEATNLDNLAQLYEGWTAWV

Compound `CN(C)CCOc1ccc(-c2nc(-c3ccncc3)c(-c3ccc4c(c3)CC/C4=N\O)[nH]2)cc1` had a % of control in assay [1] of 6%.

With `Cn1cc(Nc2nccc(N3CC4CCC(C3)N4C(=O)[C@@H]3CC3(F)F)n2)cn1`, the % of inhibition in assay [2] stood at 62%.

`CNC(=O)Nc1ccc(-c2nc(N3CC4CCC(C3)O4)c3cnn(C4CCC5(CC4)OCCO5)c3n2)cc1`: in assay [3], the % of inhibition turned out to be 1%. The % of control in assay [4] came to 100%.

As to `CC[C@@H]1[C@H](F)C(=O)N[C@@H]1COc1nccc2cc(C(N)=O)c(OC)cc12` [ZIMLOVISERTIB], in assay [5], the % of inhibition amounted to 4.9%.

For the compound `COCC(=O)NC/C=C/c1ccc2ncnc(Nc3ccc(Oc4ccc(C)nc4)c(C)c3)c2c1` [CP-724714], the % of control in assay [6] is 82%.
